The results in this text go back to article PMC2746040 (Synapse (New York, N.Y.), 2009).

Where “and” joins values, the source holds several entries; their conditions need not be identical. Identical values can stand only once. Like-named read-outs stand apart in the source and are kept apart here.

The subject of one experiment is D2L-YFP. As to the kind of experiment: Agonist-induced receptor internalization assessed via confocal microscopy. Particulars: 15 min, room temperature, 50 nM MNPA or 10 μM dopamine. It counts as cell-based.
Experiment [1] has as its target T1, D3 DAR (Rattus norvegicus, UniProt P19020). It counts as binding. Particulars: read-out: KiL.
Experiment [2] deals with T2, D2L DAR (Rattus norvegicus, UniProt P61169). The format is binding. Particulars: intact cells; for hill coefficient: [3H]sulpiride competition.
Experiment [3] concerns the target T1, D3 DAR. It counts as cell-based.
Experiment [4] concerns the target T2, D2L DAR. It counts as binding.
Experiment [5] addresses T2, D2L DAR. It counts as cell-based. Particulars: for % Maximum inhibition: 3 μM forskolin-stimulated cAMP accumulation, 10 min 37°C, HEK293T. (cAMP levels reflect the balance of adenylyl cyclase and phosphodiesterase activity.)
Experiment [6] concerns the target T2, D2L DAR. The format is cell-based. Particulars: 50 nM MNPA or 10 μM dopamine.
Experiment [7] concerns the target T2, D2L DAR. The format is binding. Particulars: for % decrease of Bmax: by Gpp(NH)p 100 μM.

T2 sequence (P61169 whole entry): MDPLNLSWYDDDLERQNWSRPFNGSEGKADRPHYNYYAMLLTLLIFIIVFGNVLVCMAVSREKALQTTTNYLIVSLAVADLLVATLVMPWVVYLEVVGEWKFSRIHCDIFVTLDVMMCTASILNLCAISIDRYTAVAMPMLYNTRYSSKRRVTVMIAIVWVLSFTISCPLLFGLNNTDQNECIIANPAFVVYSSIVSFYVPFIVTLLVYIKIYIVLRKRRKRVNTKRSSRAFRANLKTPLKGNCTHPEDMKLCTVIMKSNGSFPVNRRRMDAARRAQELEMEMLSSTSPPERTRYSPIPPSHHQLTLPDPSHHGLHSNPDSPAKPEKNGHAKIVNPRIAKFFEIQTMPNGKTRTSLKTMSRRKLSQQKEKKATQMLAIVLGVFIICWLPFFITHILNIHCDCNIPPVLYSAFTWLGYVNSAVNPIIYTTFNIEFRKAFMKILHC
T1 sequence (P19020 whole entry): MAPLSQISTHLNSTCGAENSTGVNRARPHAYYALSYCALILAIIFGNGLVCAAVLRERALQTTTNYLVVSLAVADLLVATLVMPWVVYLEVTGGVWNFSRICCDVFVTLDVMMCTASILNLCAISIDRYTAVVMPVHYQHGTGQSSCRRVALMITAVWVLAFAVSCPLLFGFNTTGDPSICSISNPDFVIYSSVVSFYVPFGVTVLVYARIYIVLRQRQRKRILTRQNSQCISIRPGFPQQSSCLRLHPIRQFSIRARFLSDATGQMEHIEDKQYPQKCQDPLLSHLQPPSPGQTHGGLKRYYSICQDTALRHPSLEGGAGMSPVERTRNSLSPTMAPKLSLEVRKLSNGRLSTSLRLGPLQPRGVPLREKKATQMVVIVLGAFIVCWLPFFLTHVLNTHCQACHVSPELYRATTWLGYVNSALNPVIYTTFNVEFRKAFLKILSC

For `NCCc1ccc(O)c(O)c1` [Dopamine, dopamine, reference compound], the “internalization of the D2-YFP receptor (confocal images)” value with D2L-YFP is listed as “some of the D2-YFP fluorescence is apparent in punctuated, vesicle-like structures in the cytosol”.

For the compound `CCCN1CCc2cc(OC)cc3c2[C@H]1Cc1ccc(O)c(O)c1-3` [MNPA, (R)-2-^11CH3O-N-n-propylnorapomorphine], the Ki at D3 DAR [1] (+ GTP 100 μM (dopamine: one-site fit)) turned out to be 1.09 ± 1.7 nM; at D3 DAR [1] (absence of GTP (dopamine: one-site fit)), 1.02 ± 0.2 nM; at D2L DAR [2] ([3H]sulpiride ~2 nM, 1 hour 37°C, single site), 109 ± 52 nM; on D2L DAR [4] (read-out: KiH, high affinity state, absence of GTP, [3H]methylspiperone ~0.2 nM), 0.09 ± 0.02 nM; on D2L DAR [4] (read-out: KiL, + GTP 100 μM, single site), 13.7 ± 3.3 nM; at D2L DAR [4] (read-out: KiL, low affinity state, absence of GTP) it was 16.9 ± 3.2 nM. The IC50 (as a rule, the concentration that inhibits the measured activity by half) on D3 DAR [3] (3 μM forskolin, D3 DAR + AC-V, no antagonist) was determined as 3.43 nM; on D2L DAR [5] (inhibition of forskolin-stimulated cAMP accumulation, no antagonist), 0.33 ± 0.26 nM. Further, at D3 DAR [3] (read-out: EC50 value for inhibiting D3 DAR activity), the EC50 (as a rule, the concentration at which the effect is half-maximal) worked out at 3.4 nM.

At D2L DAR [2], `CCCN1CCc2cc(O[11CH3])cc3c2[C@H]1Cc1ccc(O)c(O)c1-3` [MNPA, (R)-2-^11CH3O-N-n-propylnorapomorphine] returned a hill coefficient of 1.7 ± 0.2. For the same compound, the “fold higher EC50 at D3 DAR compared to D2 DAR” value on D3 DAR [3] is roughly 10 fold. Further, the “fold reduction in potency by (+)-butaclamol” value on D3 DAR [3] (10 μM (+)butaclamol) was 100 fold. Moreover, the “agonist character at the D3 DAR” value at D3 DAR [3] (cAMP accumulation) is reported as “full agonist”. At D3 DAR [3] (cAMP accumulation), the “potency relative to dopamine at the D3 DAR” value was “slightly less potent than dopamine”. Also, on D3 DAR [3] (maximal extent), the “inhibition of forskolin stimulated cAMP accumulation” value is listed as 42-43%. Also, the “% decrease of Bmax” value on D2L DAR [6] (Arrestin2 co-transfection) is 53 ± 2%; on D2L DAR [6] (Arrestin3 co-transfection) it was 68 ± 8%; at D2L DAR [6] (pcDNA transfection), 23% and 23 ± 7%; on D2L DAR [7], 21 ± 9%; at D2L DAR [7] (listed as [^3H]MNPA), 17-21%. The “Bmax of [3H]sulpiride after agonist pretreatment” value was 3.00 ± 0.33 fmol/10^5cells at D2L DAR [6] (Arrestin2 co-transfection), 2.75 ± 0.27 fmol/10^5cells on D2L DAR [6] (Arrestin3 co-transfection) and 7.25 ± 0.53 fmol/10^5cells at D2L DAR [6] (pcDNA transfection). At D2L DAR [4], the “fold lower Ki values than dopamine” value is given as 200-1000 fold. Also, on D2L DAR [4] (absence of GTP), the “% RH (percentage of receptors configured in the GTP sensitive high-affinity state)” value was 24 ± 1%. In the experiment with D2L-YFP, the “internalization of the D2-YFP receptor (confocal images)” value was “promotes internalization of the D2-YFP receptor”. Also, the “% Maximum inhibition” value at D2L DAR [5] was found to be 82 ± 3%. Moreover, the “agonist character at the D2L DAR” value at D2L DAR [5] (cAMP accumulation) was “potent and full agonist”. The “fold increase of Kd by Gpp(NH)p” value on D2L DAR [7] (Gpp(NH)p 100 μM) is given as roughly 2 fold.

Turning to `CN1CN(c2ccccc2)C2(CCN(CCCC(=O)c3ccc(F)cc3)CC2)C1=O` [MSP, methylspiperone, reference compound], the “effect of Gpp(NH)p on binding” value on D2L DAR [7] (Gpp(NH)p 100 μM) is on record as “no effect”.

As to `CCCN1CCc2cccc3c2[C@H]1Cc1ccc(O)c(O)c1-3` [NPA, N-n-propylnorapomorphine, reference compound], the hill coefficient at D2L DAR [2] was found to be 1.5 ± 0.2. Also, the “% RH (percentage of receptors configured in the GTP sensitive high-affinity state)” value on D2L DAR [4] (absence of GTP) is recorded as 24 ± 1%. The “% Maximum inhibition” value at D2L DAR [5] was 72 ± 8%. In addition, the “% decrease of Bmax” value is given as 17 ± 5% at D2L DAR [7] and 17-21% on D2L DAR [7] (listed as [^3H]NPA).
